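96-well plates; 48 h exposure; 5 concentrations. Endpoints by linear interpolation between flanking doses. Not reached: highest tested concentration assigned. GI50 = concentration required for 50% inhibition of growth.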 Activity calls are given as the source filed them. Rule as the data show it: active = GI50 up to about 1.1 µM and inactive = higher.
Legend:
Assay in all cases: growth of human tumour cells (NCI), 48 h
COLO 205 = tested on: COLO 205
CCRF-CEM = tested on: CCRF-CEM
OVCAR-8 = tested on: OVCAR-8
ACHN = tested on: ACHN
UO-31 = tested on: UO-31
IGROV-1 = tested on: IGROV-1
SF-268 = tested on: SF-268
NCI-H460 = tested on: NCI-H460
LOX IMVI = tested on: LOX IMVI
NCI-H226 = tested on: NCI-H226
OVCAR-5 = tested on: OVCAR-5
SNB-75 = tested on: SNB-75
Malme-3M = tested on: Malme-3M
XF498 = tested on: XF498
HCC 2998 = tested on: HCC 2998
RPMI-8226 = tested on: RPMI-8226
KM12 = tested on: KM12
UACC-62 = tested on: UACC-62
DMS-273 = tested on: DMS-273
MDA-MB-435 = tested on: MDA-MB-435

Compound | GI50 (COLO 205) | GI50 (CCRF-CEM) | GI50 (OVCAR-8) | GI50 (ACHN) | GI50 (UO-31) | GI50 (IGROV-1) | GI50 (SF-268) | GI50 (NCI-H460) | GI50 (LOX IMVI) | GI50 (NCI-H226) | GI50 (OVCAR-5) | GI50 (SNB-75) | GI50 (Malme-3M) | GI50 (XF498) | GI50 (HCC 2998) | GI50 (RPMI-8226) | GI50 (KM12) | GI50 (UACC-62) | GI50 (DMS-273) | GI50 (MDA-MB-435)
CCOc1ccccc1NC(=O)C1=C(C)NC(C)=C(C(=O)Nc2ccccc2OCC)C1c1ccc2c(c1)OCO2 | 18.2 µM (inactive) | 24.2 µM (inactive) | 47.3 µM (inactive) | 36.8 µM (inactive) | 21.8 µM (inactive) | 25 µM (inactive) | 41.5 µM (inactive) | 29.1 µM (inactive) | 34 µM (inactive) | 22 µM (inactive) | 53.2 µM (inactive) | 3.53 µM (inactive) | 26.2 µM (inactive) | 12.8 µM (inactive) | 10.1 µM (inactive) | 17.4 µM (inactive) | 11.8 µM (inactive) | – | – | –
O=C(N[C@H]1CC2(C=C(I)C(=O)C(I)=C2)OC1=O)OCc1ccccc1 | 14.5 µM (inactive) | 2.61 µM (inactive) | 17.3 µM (inactive) | 18.5 µM (inactive) | 18.2 µM (inactive) | – | 18.1 µM (inactive) | 21.1 µM (inactive) | 16 µM (inactive) | 22.7 µM (inactive) | 18.9 µM (inactive) | 19.6 µM (inactive) | 17.3 µM (inactive) | 13.8 µM (inactive) | 17.9 µM (inactive) | 26.2 µM (inactive) | 16 µM (inactive) | 16.5 µM (inactive) | – | –
Brc1cc2c(cc1C1SCCS1)OCO2 | – | > 100 µM (inactive) | > 100 µM (inactive) | > 100 µM (inactive) | > 100 µM (inactive) | > 100 µM (inactive) | > 100 µM (inactive) | > 100 µM (inactive) | 81.7 µM (inactive) | – | > 100 µM (inactive) | > 100 µM (inactive) | > 100 µM (inactive) | – | > 100 µM (inactive) | 89.5 µM (inactive) | > 100 µM (inactive) | > 100 µM (inactive) | > 100 µM (inactive) | –
C1=C2/CC[C@H](Sc3ccccc3)[C@H]2C2(CCCCC/1)OCCO2 | 19.5 µM (inactive) | 24.5 µM (inactive) | 26.7 µM (inactive) | 35.6 µM (inactive) | 27 µM (inactive) | 54.7 µM (inactive) | 82.8 µM (inactive) | 63.4 µM (inactive) | 18.7 µM (inactive) | – | 29.5 µM (inactive) | 27.9 µM (inactive) | 28.5 µM (inactive) | – | 22.3 µM (inactive) | 24.4 µM (inactive) | 29.9 µM (inactive) | 19.6 µM (inactive) | 39.4 µM (inactive) | –
CC1=CP(=O)(OC(C)C)CC(C)=C1Cl (stereo not drawn) | > 100 µM (inactive) | 34.4 µM (inactive) | > 100 µM (inactive) | > 100 µM (inactive) | > 100 µM (inactive) | > 100 µM (inactive) | 82.6 µM (inactive) | > 100 µM (inactive) | > 100 µM (inactive) | > 100 µM (inactive) | > 100 µM (inactive) | > 100 µM (inactive) | > 100 µM (inactive) | – | > 100 µM (inactive) | 94.8 µM (inactive) | > 100 µM (inactive) | > 100 µM (inactive) | 98.4 µM (inactive) | –
Cc1cnc2nc(-c3ccc(F)cc3)cc(O)c2c1 | 7.64 µM (inactive) | 25.6 µM (inactive) | 66.4 µM (inactive) | 57.5 µM (inactive) | 48.2 µM (inactive) | 29.2 µM (inactive) | 67.9 µM (inactive) | 19.1 µM (inactive) | 40.4 µM (inactive) | 27.1 µM (inactive) | 51.4 µM (inactive) | 20.1 µM (inactive) | 33.9 µM (inactive) | – | 43.5 µM (inactive) | 21.1 µM (inactive) | 5.66 µM (inactive) | 21.4 µM (inactive) | – | 2.81 µM (inactive)
COc1cc(C2C3=C(COC3=O)OC(C)(C)Oc3cc4c(cc32)OCO4)cc(OC)c1OC (stereo not drawn) | 0.236 µM (active) | 0.395 µM (active) | 0.342 µM (active) | 0.682 µM (active) | 0.426 µM (active) | 0.521 µM (active) | 0.405 µM (active) | 0.365 µM (active) | 0.331 µM (active) | 0.885 µM (active) | 3.72 µM (inactive) | 0.253 µM (active) | > 37.8 µM (inactive) | – | 0.535 µM (active) | 0.444 µM (active) | 0.212 µM (active) | 0.35 µM (active) | – | 0.167 µM (active)
O=[N+]([O-])c1ccc(Cl)c(/C=N/C23CC4CC(CC(C4)C2)C3)c1 | > 10 µM (inactive) | 3.8 µM (inactive) | 4 µM (inactive) | > 10 µM (inactive) | > 10 µM (inactive) | > 10 µM (inactive) | > 10 µM (inactive) | > 10 µM (inactive) | > 9.12 µM (inactive) | > 10 µM (inactive) | > 10 µM (inactive) | > 10 µM (inactive) | > 10 µM (inactive) | – | > 10 µM (inactive) | > 6.93 µM (inactive) | > 9.48 µM (inactive) | > 10 µM (inactive) | – | > 6.34 µM (inactive)
COc1ccc2nc3ccc(OC)cc3c(SCCCl)c2c1 | > 39.1 µM (inactive) | 2.75 µM (inactive) | 8.57 µM (inactive) | 13.9 µM (inactive) | 32 µM (inactive) | 5.09 µM (inactive) | 12 µM (inactive) | 33.9 µM (inactive) | 5.98 µM (inactive) | > 48.4 µM (inactive) | 24.8 µM (inactive) | 13.7 µM (inactive) | 9.57 µM (inactive) | – | > 45.8 µM (inactive) | 2.95 µM (inactive) | 17.5 µM (inactive) | 19.5 µM (inactive) | – | 9.95 µM (inactive)
COC(=O)C1=CC2C=CC(C1C(=O)OC)C1C(C(=O)OC)=C(C(=O)OC)C(C(=O)OC)=C(C(=O)OC)C21OC (stereo not drawn) | > 100 µM (inactive) | – | > 100 µM (inactive) | > 100 µM (inactive) | > 100 µM (inactive) | > 100 µM (inactive) | > 100 µM (inactive) | > 100 µM (inactive) | > 100 µM (inactive) | > 100 µM (inactive) | > 100 µM (inactive) | > 100 µM (inactive) | > 100 µM (inactive) | – | > 100 µM (inactive) | > 100 µM (inactive) | – | > 100 µM (inactive) | > 100 µM (inactive) | –
Nc1nc(N)c2nc(CNc3ccc(C(=O)O)cc3)[nH]c2n1 | > 100 µM (inactive) | > 100 µM (inactive) | > 100 µM (inactive) | > 100 µM (inactive) | > 100 µM (inactive) | > 100 µM (inactive) | > 100 µM (inactive) | > 100 µM (inactive) | > 100 µM (inactive) | > 100 µM (inactive) | > 100 µM (inactive) | > 100 µM (inactive) | > 100 µM (inactive) | – | 27.9 µM (inactive) | > 100 µM (inactive) | > 100 µM (inactive) | > 100 µM (inactive) | – | > 100 µM (inactive)
COc1ccc2cccc(C(=O)c3ccc(C)c4c3CCC4)c2c1 | 29 µM (inactive) | 26.2 µM (inactive) | 43.2 µM (inactive) | 56 µM (inactive) | 30.2 µM (inactive) | 24.6 µM (inactive) | > 100 µM (inactive) | 20.3 µM (inactive) | 19.5 µM (inactive) | 52.4 µM (inactive) | 34.3 µM (inactive) | > 100 µM (inactive) | 29.2 µM (inactive) | – | 19.6 µM (inactive) | – | 26.1 µM (inactive) | 25.4 µM (inactive) | 29.1 µM (inactive) | –
